Consider 5 molecules from ChEMBL document CHEMBL1201862, “PubChem BioAssay data set” (2004).

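96-well plates; 48 h exposure; 5 concentrations. Endpoints by linear interpolation between flanking doses. Not reached: highest tested concentration assigned. GI50 is the concentration that inhibits growth by half.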 The source made the active and inactive calls. No stated cut-off is given here; in the data, active = GI50 up to about 1.1 µM and inactive = higher. Some results are limits rather than exact numbers.

Test systems include HCT-116; COLO 205; NCI-H522; UACC-62; T47D; SK-OV-3; PC-3; CAKI-1; TK-10; NCI-H226; K562; SF-268; IGROV-1; SNB-75; MDA-MB-231; RPMI-8226; HL-60; HCT-15.
Experiment in all cases: growth of human tumour cells (NCI), 48 h

As for `OCC1OC(n2cnc3c(Cl)nc(Nc4ccc(Cl)c(Cl)c4)nc32)CC1O` (stereo unspecified), the GI50 is 11 µM (inactive) in the test on HCT-116; 11 µM (inactive) in the test on COLO 205; 9.29 µM (inactive) in the test on NCI-H522; 8.73 µM (inactive) in the test on UACC-62; 13.3 µM (inactive) in the test on T47D; 13.6 µM (inactive) in the test with SK-OV-3. The GI50 in the test on PC-3 is 9.57 µM (inactive); in the test with CAKI-1, 16.3 µM (inactive); with TK-10, 8.36 µM (inactive); in the test on NCI-H226, 8.15 µM (inactive); with K562, 8.63 µM (inactive); in the test with SF-268, 12.7 µM (inactive). Further, the GI50 in the test on IGROV-1 is 11.9 µM (inactive); with SNB-75, 15.7 µM (inactive); in the test with MDA-MB-231 it was 11.8 µM (inactive); in the test on RPMI-8226 it was 8.13 µM (inactive); with HL-60 it was 7.05 µM (inactive); in the test on HCT-15, 8.63 µM.

`CC(N)/C(N)=N/O` (stereo unspecified): the GI50 in the test on HCT-116, in the test on COLO 205, with NCI-H522, in the test on UACC-62, with T47D and in the test on SK-OV-3 was > 100 µM (inactive) each time. Moreover, the GI50 in the test with PC-3, in the test on CAKI-1, with TK-10, in the test on NCI-H226, in the test with K562 and in the test on SF-268 was > 100 µM (inactive) each time. Moreover, the GI50 in the test on IGROV-1 is > 100 µM (inactive); in the test with SNB-75 it was > 100 µM (inactive); in the test with MDA-MB-231, > 100 µM (inactive); in the test on RPMI-8226 it was > 100 µM (inactive); in the test with HL-60 it was > 100 µM (inactive); in the test on HCT-15 it was greater than 100 µM.

As for `O=C(NCCCCN(CCCNC(=O)C(F)(F)F)Cc1ccccc1)C(F)(F)F`, the GI50 in the test on HCT-116, in the test on COLO 205, in the test with NCI-H522, in the test on UACC-62, with T47D and in the test with SK-OV-3 was > 100 µM (inactive) each time. The GI50 is 92.3 µM (inactive) in the test on PC-3; > 100 µM (inactive) in the test with TK-10; 35.4 µM (inactive) in the test on NCI-H226; > 100 µM (inactive) with K562; > 100 µM (inactive) with SF-268; 25.2 µM (inactive) in the test with IGROV-1. Moreover, the GI50 was > 100 µM (inactive) with SNB-75; > 100 µM (inactive) in the test on MDA-MB-231; > 100 µM (inactive) in the test with RPMI-8226; > 100 µM (inactive) with HL-60; greater than 100 µM in the test on HCT-15.

For `CC(=O)OCC1OC(NC(=S)Nn2c(-c3ccccc3)nc3ccccc3c2=O)C(OC(C)=O)C(OC(C)=O)C1OC(C)=O` (stereo unspecified), the GI50 in the test with HCT-116 is > 100 µM (inactive); with COLO 205 it was > 100 µM (inactive); in the test on NCI-H522, 45.5 µM (inactive); in the test on UACC-62 it was 51.5 µM (inactive); in the test with T47D, 19.4 µM (inactive); in the test with SK-OV-3, > 100 µM (inactive). The GI50 was > 100 µM (inactive) with PC-3; > 100 µM (inactive) in the test on CAKI-1; 14.7 µM (inactive) with NCI-H226; > 100 µM (inactive) in the test with K562; > 100 µM (inactive) with SF-268; 33.8 µM (inactive) in the test with IGROV-1. The GI50 is 96.8 µM (inactive) in the test with SNB-75; 81.5 µM (inactive) in the test on MDA-MB-231; > 100 µM (inactive) with RPMI-8226; 70.8 µM (inactive) in the test with HL-60; greater than 100 µM with HCT-15.

On to `Cc1cnc2sn(-c3ccc(Oc4ccccc4)cc3)c(=O)c2c1`, for which the GI50 is 14 µM (inactive) in the test on HCT-116; 20.5 µM (inactive) with COLO 205; 5.58 µM (inactive) in the test on NCI-H522; 10.3 µM (inactive) with UACC-62; 14 µM (inactive) in the test with T47D; 25.8 µM (inactive) in the test on SK-OV-3. The GI50 was 13.4 µM (inactive) in the test on PC-3; 17.7 µM (inactive) in the test on TK-10; 18.2 µM (inactive) in the test on NCI-H226; 11.8 µM (inactive) in the test on SF-268; 14.7 µM (inactive) in the test on IGROV-1; 17.9 µM (inactive) in the test on SNB-75. The GI50 is 20.5 µM (inactive) in the test on MDA-MB-231, 9.62 µM (inactive) with RPMI-8226, 4.36 µM (inactive) in the test on HL-60 and 7.38 µM with HCT-15.
